By IC50 is commonly meant the concentration that gives 50% inhibition. A word on the Ki: it is a measure of affinity in units of concentration, obtained from inhibition or displacement. Low values mean higher affinity, high ones lower affinity.

The structures appear in SMILES notation.

For one assay, the target named is CK-1δ (Homo sapiens (Human), UniProt P48730). The assay can be described thus: Kinase assay, concentration dependent inhibition of CK-1δ. Conditions: read-out: Ck1δ IC50.
The target in another assay is human p38α MAPK (Homo sapiens (Human), UniProt Q16539). The assay can be described thus: Kinase assay, concentration dependent inhibition of p38α MAPK. Type of assay: biochemical. The following applies: for Ki: kinetic analyses.
Chain of human p38α MAPK (Q16539 whole entry): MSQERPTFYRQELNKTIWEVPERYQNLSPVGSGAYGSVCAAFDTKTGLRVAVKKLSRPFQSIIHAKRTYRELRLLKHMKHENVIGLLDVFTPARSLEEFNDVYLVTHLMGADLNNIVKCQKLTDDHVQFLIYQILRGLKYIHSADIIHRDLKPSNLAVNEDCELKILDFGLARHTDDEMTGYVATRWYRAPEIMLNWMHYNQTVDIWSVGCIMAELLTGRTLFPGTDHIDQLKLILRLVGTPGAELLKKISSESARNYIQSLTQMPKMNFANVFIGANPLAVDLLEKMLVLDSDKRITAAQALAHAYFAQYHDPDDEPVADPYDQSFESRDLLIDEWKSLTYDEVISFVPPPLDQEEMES

Chain of CK-1δ (P48730 whole entry): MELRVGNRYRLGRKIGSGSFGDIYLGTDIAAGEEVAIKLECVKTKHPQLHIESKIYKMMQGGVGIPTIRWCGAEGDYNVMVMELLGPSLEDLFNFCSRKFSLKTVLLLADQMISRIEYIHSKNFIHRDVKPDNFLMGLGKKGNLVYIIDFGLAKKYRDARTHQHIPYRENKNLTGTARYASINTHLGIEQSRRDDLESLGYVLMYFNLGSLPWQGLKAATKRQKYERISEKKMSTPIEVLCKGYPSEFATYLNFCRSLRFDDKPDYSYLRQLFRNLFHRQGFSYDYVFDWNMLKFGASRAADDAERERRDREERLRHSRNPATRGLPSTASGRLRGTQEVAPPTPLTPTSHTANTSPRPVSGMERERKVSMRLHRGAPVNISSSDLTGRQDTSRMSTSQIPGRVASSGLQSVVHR

For the molecule `Fc1cnccc1-c1cc(C2CC2)nnc1-c1ccc2ccccc2c1` [10 (MW-167), 6-Cyclopropyl-4-(3-fluoropyridin-4-yl)-3-(naphthalen-2-yl)pyridazine], the IC50 at CK-1δ was more than 10000 nM; at human p38α MAPK it was 307 nM. At human p38α MAPK, the Ki was 86 nM.

`CN1CCN(c2cc(-c3ccncc3)c(-c3cccc4ccccc34)nn2)CC1` [11 (MW-122), 6-(4-methylpiperazin-1-yl)-3-(naphthalen-1-yl)-4-(pyridin-4-yl)pyridazine]: the values for the IC50 on CK-1δ and against human p38α MAPK were more than 10000 nM and 185 nM, respectively. On human p38α MAPK, affinity was put at a Ki of 98 nM.

Regarding `c1ccc2c(-c3nnc(N4CCCCC4)cc3-c3ccncc3)cccc2c1` [12 (MW-124), 3-(naphthalen-1-yl)-6-(piperidin-1-yl)-4-(pyridin-4-yl)pyridazine], the IC50 on CK-1δ is more than 10000 nM; on human p38α MAPK, 191 nM.

Consider `c1ccc2c(-c3nnc(NC4CC4)cc3-c3ccncc3)cccc2c1` [13 (MW-107), N-cyclopropyl-6-(naphthalen-1-yl)-5-(pyridin-4-yl)pyridazin-3-amine], for which, on CK-1δ, the IC50 is more than 10000 nM. At human p38α MAPK, the IC50 came out at 264 nM and the affinity, expressed as Ki, was 91 nM.

Take `CN1CCN(c2cc(-c3ccncc3F)c(-c3cccc4ccccc34)nn2)CC1` [14 (MW-109), 4-(3-fluoropyridin-4-yl)-6-(4-methylpiperazin-1-yl)-3-(naphthalen-1-yl)pyridazine]: the IC50 was more than 10000 nM on CK-1δ and 131 nM against human p38α MAPK.

`CNc1cc(-c2ccncc2)c(-c2cccc3ccccc23)nn1` [15 (MW-156), N-methyl-6-(naphthalen-1-yl)-5-(pyridin-4-yl)pyridazin-3-amine]: on CK-1δ, the IC50 is more than 10000 nM. At human p38α MAPK, this molecule displayed an IC50 of 289 nM and a Ki of 276 nM.

As for `CNc1cc(-c2ccncc2)c(-c2ccc3ccccc3c2)nn1` [16 (MW-200), N-methyl-6-(naphthalen-2-yl)-5-(pyridin-4-yl)pyridazin-3-amine], the IC50 on CK-1δ was determined as 4980 nM. For the same molecule, on human p38α MAPK, 175 nM corresponded to half-maximal inhibition (IC50) and the Ki turned out to be 100 nM.

In the case of `CN(C)c1cc(-c2ccncc2)c(-c2ccc(F)c3ccccc23)nn1` [17 (MW-078), 6-(4-fluoronaphthalen-1-yl)-N,N-dimethyl-5-(pyridin-4-yl)pyridazin-3-amine], the IC50 is more than 10000 nM at CK-1δ and 1780 nM at human p38α MAPK.

Turning to `CN(C)c1cc(-c2ccncc2)c(-c2cccc3ccc(F)cc23)nn1` [18 (MW-085), 6-(7-fluoronaphthalen-1-yl)-N,N-dimethyl-5-(pyridin-4-yl)pyridazin-3-amine], the IC50 against human p38α MAPK turned out to be 1170 nM.

Turning to `COc1ccc2ccccc2c1-c1nnc(N(C)C)cc1-c1ccncc1` [19 (MW-155), 6-(2-methoxynaphthalen-1-yl)-N,N-dimethyl-5-(pyridin-4-yl)pyridazin-3-amine], the IC50 on human p38α MAPK is more than 1600 nM.

Take `CN(C)c1cc(-c2ccncc2)c(-c2cccc3cnccc23)nn1` [20 (MW-082), 6-(isoquinolin-5-yl)-N,N-dimethyl-5-(pyridin-4-yl)pyridazin-3-amine]: the IC50 on CK-1δ is more than 10000 nM; at human p38α MAPK, more than 3200 nM.

With `CN(C)c1cc(-c2ccncc2)c(-c2cc(F)cc3cccnc23)nn1` [21 (MW-165), 6-(6-fluoroquinolin-8-yl)-N,N-dimethyl-5-(pyridin-4-yl)pyridazin-3-amine], the IC50 against human p38α MAPK is more than 1600 nM.

With `CN(C)c1cc(-c2ccncc2)c(-c2ccc3[nH]ccc3c2)nn1` [22 (MW-066), 6-(1H-indol-5-yl)-N,N-dimethyl-5-(pyridin-4-yl)pyridazin-3-amine], the IC50 stood at 4280 nM at CK-1δ and 369 nM against human p38α MAPK.

For `c1ccc2cc(-c3nnc(N4CCOCC4)cc3-c3ccncc3)ccc2c1` [33 (MW-152), 4-(6-(naphthalen-2-yl)-5-(pyridin-4-yl)pyridazin-3-yl)morpholine], the IC50 on human p38α MAPK turned out to be 481 nM.

As to `c1ccc2cc(-c3nnc(NC4CC4)cc3-c3ccncc3)ccc2c1` [35 (MW-153), N-cyclopropyl-6-(naphthalen-2-yl)-5-(pyridin-4-yl)pyridazin-3-amine], at human p38α MAPK, the IC50 came to 189 nM.

These data come from patent US11149020B2, “MAP kinase modulators and uses thereof” (The Trustees of Columbia University in the City of New York, priority 2013, dated 2021).
